From paper PMC11079024, “Identification of a family of species-selective complex I inhibitors as potential anthelmintics” (Nature Communications, 2024)

What follows are molecules tested on L1 wild-type C. elegans (assay: microbe, parasite or virus in culture). Conditions: Caenorhabditis elegans, read-out: C. elegans KCN Survival Assay LC50.

Compound	LC50 [µM]
Cc1nc2ccccc2n1Cc1ccc(Cl)cc1 [STK697993]	8.18

Same assay, conditions: Caenorhabditis elegans, read-out: C. elegans KCN Survival Assay LC50, estimated from fitted dose-response curves; mean of at least two biological replicates

Compound	LC50 [µM]
Cc1nc2ccccc2n1CCOc1ccccc1 [Compound 5550112]	32.9

What follows are molecules tested against B. taurus (heart) complex I (Bos taurus, UniProt P03887+P17694+P42026) (assay: biochemical). Conditions: B. taurus complex I IC50 relative to C. elegans complex I IC50.
Chain of B. taurus (heart) complex I (P03887 whole entry): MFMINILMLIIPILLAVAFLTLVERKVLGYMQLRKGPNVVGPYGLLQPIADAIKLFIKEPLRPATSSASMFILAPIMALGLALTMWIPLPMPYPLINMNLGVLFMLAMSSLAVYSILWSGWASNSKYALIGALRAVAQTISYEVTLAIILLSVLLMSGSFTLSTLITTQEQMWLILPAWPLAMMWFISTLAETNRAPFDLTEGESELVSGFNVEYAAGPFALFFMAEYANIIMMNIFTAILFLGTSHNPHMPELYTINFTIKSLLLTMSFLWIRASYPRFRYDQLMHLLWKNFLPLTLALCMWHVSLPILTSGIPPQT
Chain of B. taurus (heart) complex I (P17694 34-463): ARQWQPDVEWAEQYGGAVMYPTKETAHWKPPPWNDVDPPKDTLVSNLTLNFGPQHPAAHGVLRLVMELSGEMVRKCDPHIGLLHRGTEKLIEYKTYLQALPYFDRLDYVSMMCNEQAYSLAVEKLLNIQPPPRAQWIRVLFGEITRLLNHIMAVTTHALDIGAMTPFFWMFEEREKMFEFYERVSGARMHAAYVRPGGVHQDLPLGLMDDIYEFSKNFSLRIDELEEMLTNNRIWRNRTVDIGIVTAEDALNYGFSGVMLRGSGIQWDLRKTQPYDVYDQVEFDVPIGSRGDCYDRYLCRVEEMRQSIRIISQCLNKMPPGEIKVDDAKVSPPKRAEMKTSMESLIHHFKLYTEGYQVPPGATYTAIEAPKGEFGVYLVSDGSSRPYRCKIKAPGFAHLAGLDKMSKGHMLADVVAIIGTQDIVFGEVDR
Chain of B. taurus (heart) complex I (P42026 38-216): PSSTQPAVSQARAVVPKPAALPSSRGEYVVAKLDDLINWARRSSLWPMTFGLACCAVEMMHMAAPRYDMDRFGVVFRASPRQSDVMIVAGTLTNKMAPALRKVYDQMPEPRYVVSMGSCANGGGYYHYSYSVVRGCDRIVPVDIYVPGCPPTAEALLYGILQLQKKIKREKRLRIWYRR
Format: biochemical
Method in brief: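 Complex I activity followed as DCIP reduction (600 nm, 30 s reads, 15 min) with 80 μM NADH and 60 μM decylubiquinone in 25 mM KPi pH 7.5 containing 2 μM antimycin A and 2 mM KCN. Freeze-thawed mouse or bovine heart mitochondria at 0.2 mg/mL; initial-rate percent of solvent control, single-point 100 μM or dose-response.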

Compound	Complex I IC50 ~Fold Change
Cc1nc2ccccc2n1Cc1ccc(Cl)cc1 [STK697993]	2.72

Same assay, conditions: B. taurus heart mitochondria; estimated from fitted dose-response curves; read-out: B. taurus Complex I IC50

Compound	IC50 [µM]
Cc1nc2ccccc2n1Cc1ccc(Cl)cc1 [STK697993]	0.3

Same assay, conditions: B. taurus heart mitochondria; read-out: B. taurus Complex I IC50

Compound	IC50 [µM]
Cc1nc2ccccc2n1CCOc1ccccc1 [Compound 5550112]	9.86

Same assay, conditions: Dose 0.0001 µM; read-out: B. taurus mitochondrial complex I activity

Compound	activity at 0.0001 µM [%]
Cc1nc2ccccc2n1CCOc1ccccc1 [Compound 5550112]	101

Same assay, conditions: Dose 0.0005 µM; read-out: B. taurus mitochondrial complex I activity

Compound	activity at 0.0005 µM [%]
Cc1nc2ccccc2n1CCOc1ccccc1 [Compound 5550112]	97.8

Same assay, conditions: Dose 0.001 µM; read-out: B. taurus mitochondrial complex I activity

Compound	activity at 0.001 µM [%]
Cc1nc2ccccc2n1CCOc1ccccc1 [Compound 5550112]	105

Same assay, conditions: Dose 0.0025 µM; read-out: B. taurus mitochondrial complex I activity

Compound	activity at 0.0025 µM [%]
Cc1nc2ccccc2n1CCOc1ccccc1 [Compound 5550112]	102

Same assay, conditions: Dose 0.005 µM; read-out: B. taurus mitochondrial complex I activity

Compound	activity at 0.005 µM [%]
Cc1nc2ccccc2n1CCOc1ccccc1 [Compound 5550112]	103

Same assay, conditions: Dose 0.013 µM; read-out: B. taurus mitochondrial complex I activity

Compound	activity at 0.013 µM [%]
Cc1nc2ccccc2n1CCOc1ccccc1 [Compound 5550112]	98.3

Same assay, conditions: Dose 0.025 µM; read-out: B. taurus mitochondrial complex I activity

Compound	activity at 0.025 µM [%]
Cc1nc2ccccc2n1CCOc1ccccc1 [Compound 5550112]	99.2

Same assay, conditions: Dose 0.063 µM; read-out: B. taurus mitochondrial complex I activity

Compound	activity at 0.063 µM [%]
Cc1nc2ccccc2n1CCOc1ccccc1 [Compound 5550112]	91.8

Same assay, conditions: Dose 0.125 µM; read-out: B. taurus mitochondrial complex I activity

Compound	activity at 0.125 µM [%]
Cc1nc2ccccc2n1CCOc1ccccc1 [Compound 5550112]	95.1

Same assay, conditions: Dose 0.313 µM; read-out: B. taurus mitochondrial complex I activity

Compound	activity at 0.313 µM [%]
Cc1nc2ccccc2n1CCOc1ccccc1 [Compound 5550112]	92.8

Same assay, conditions: Dose 0.625 µM; read-out: B. taurus mitochondrial complex I activity

Compound	activity at 0.625 µM [%]
Cc1nc2ccccc2n1CCOc1ccccc1 [Compound 5550112]	96.9

Same assay, conditions: Dose 1.5 µM; read-out: B. taurus mitochondrial complex I activity

Compound	activity at 1.5 µM [%]
Cc1nc2ccccc2n1CCOc1ccccc1 [Compound 5550112]	85.2

Same assay, conditions: Dose 3 µM; read-out: B. taurus mitochondrial complex I activity

Compound	activity at 3 µM [%]
Cc1nc2ccccc2n1CCOc1ccccc1 [Compound 5550112]	74.2

Same assay, conditions: Dose 15 µM; read-out: B. taurus mitochondrial complex I activity

Compound	activity at 15 µM [%]
Cc1nc2ccccc2n1CCOc1ccccc1 [Compound 5550112]	36.6

Same assay, conditions: Dose 37.5 µM; read-out: B. taurus mitochondrial complex I activity

Compound	activity at 37.5 µM [%]
Cc1nc2ccccc2n1CCOc1ccccc1 [Compound 5550112]	16.7

Same assay, conditions: Dose 75 µM; read-out: B. taurus mitochondrial complex I activity

Compound	activity at 75 µM [%]
Cc1nc2ccccc2n1CCOc1ccccc1 [Compound 5550112]	5.1

Same assay, conditions: complex I IC50 ratio bovine heart / C. elegans

Compound	B. taurus: C. elegans IC50 Fold Change (Complex I IC50 ~Fold Change)
Cc1nc2ccccc2n1Cc1ccc(Cl)cc1 [STK697993]	2.72

Same assay, conditions: fold-change in IC50 between B. taurus and C. elegans complex I

Compound	IC50 Fold change
Cc1nc2ccccc2n1Cc1ccc(Cl)cc1 [STK697993]	2.72

Same assay, conditions: log10 of IC50 in µM; B. taurus mitochondria

Compound	Log IC50 B. taurus complex I [µM]
Cc1nc2ccccc2n1CCOc1ccccc1 [Compound 5550112]	0.99
Cc1nc2ccccc2n1Cc1ccc(Cl)cc1 [STK697993]	-0.52

Each molecule was assayed on ben-1 mutant (ECA882) C. elegans (assay: microbe, parasite or virus in culture). Conditions: Caenorhabditis elegans, read-out: C. elegans (ben-1) Development & Viability Assay LC50.
Method in brief: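 Development and viability scored from single well images as total worm pixels divided by the matching DMSO control value, mean of ≥3 replicates. Worms added as synchronized L1s to HB101 suspension in liquid NGM with compound (1% DMSO v/v), grown 6 days at 20 °C with shaking.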

Compound	LC50 [µM]
Cc1nc2ccccc2n1CCOc1ccccc1 [Compound 5550112]	> 1000
Cc1nc2ccccc2n1Cc1ccc(Cl)cc1 [STK697993]	40.1

Same assay, conditions: Caenorhabditis elegans, read-out: C. elegans ben-1(e1880) development/viability

Compound	viability at 1 µM [%]	viability at 2 µM [%]	viability at 3.9 µM [%]	viability at 15.6 µM [%]	viability at 31.3 µM [%]	viability at 62.5 µM [%]	viability at 125 µM [%]	viability at 250 µM [%]	viability at 500 µM [%]	viability at 1000 µM [%]
Cc1nc2ccccc2n1CCOc1ccccc1 [Compound 5550112]	99.2	100	96.9	97.1	92.9	100	93.6	86.4	91.2	92.4

Same assay, conditions: Caenorhabditis elegans, read-out: C. elegans ben-1 LC50

Compound	LC50 [µM]
Cc1nc2ccccc2n1CCOc1ccccc1 [Compound 5550112]	> 500

Same assay, conditions: Caenorhabditis elegans, read-out: C. elegans ben-1 log10 LC50 (converted)

Compound	LC50 [µM]
Cc1nc2ccccc2n1CCOc1ccccc1 [Compound 5550112]	> 500
Cc1nc2ccccc2n1Cc1ccc(Cl)cc1 [STK697993]	40.1
